According to paper PMC5487681, “Identification of Antifungal H^+-ATPase Inhibitors with Effect on Plasma Membrane Potential” (Antimicrobial Agents and Chemotherapy, 2017):
Converted amounts (≈) assume the structure as drawn. Read-outs that look alike come from different tables or passages of the source. Each block holds one molecule with its values, some of them ahead of it.

What was measured:
[1] = test system: C. albicans; experiment: Medium acidification assay, C. albicans; assay type: cell-based, Candida albicans; settings: Candida albicans, 0.2 h; 50% inhibition of medium acidification, 12 min, n = 2 to 3; read-out: IC50 for acidification, C. albicans
Experimental: (§1) Frozen stocks of C. albicans and S. cerevisiae were transferred to YPD agar plates and incubated overnight at 34°C. On the next day, the cells were suspended and washed twice in 50 mM KCl, pH 6.7, after pelleting of the cells by centrifugation at 3,000 × g for 5 min. The cells were then starved overnight at 4°C in the KCl solution. […] The pH drop was then monitored by determination of the fluorescent signal with excitation at 485 nm and emission at 538 nm on a Fluoroskan Ascent plate reader (Thermo Fisher Scientific) for 12 min. The rate of medium acidification was calculated on the basis of the slope of the drop in fluorescence.

[2] = test system: S. cerevisiae; experiment: Medium acidification assay, S. cerevisiae; assay type: cell-based, Saccharomyces cerevisiae; settings: Saccharomyces cerevisiae, 0.2 h; 50% inhibition of medium acidification, 12 min, n = 2 to 3
Experimental: as §1

[3] = test system: S. cerevisiae cells; experiment: Intracellular ATP (iATP), S. cerevisiae; assay type: cell-based, Saccharomyces cerevisiae; settings: S. cerevisiae and C. albicans (Fig. 5A, B); compared to compounds 14, 19 and BM2
Experimental: S. cerevisiae and C. albicans cells were grown and washed as described above for the membrane potential and integrity assay and resuspended in SG medium (0.7% yeast nitrogen base without amino acids [BD], 50 mM succinic acid adjusted to pH 7 with Trizma base) to OD600 of 0.2 and 0.1, respectively. One hundred microliters of an S. cerevisiae or C. albicans cell suspension and 1 μl compound in DMSO were incubated for 30 min. Twenty-five microliters of the suspension was then transferred to a black 96-well plate containing 25 μl BacTiter-Glo reagent (Promega, Madison, WI) and incubated for 15 min in the dark. The luminescence was read on SpectraMax X5 (Molecular Devices, Sunnyvale, CA) plate reader with a 10 s of shaking and a 0.5 s integration time. Standard curves at 10, 100, and 1,000 nM ATP were performed with every experiment.

[4] = target: T1, Na^+,K^+-ATPase (Sus scrofa, UniProt P05024); experiment: ATP hydrolysis assay, Na+,K+-ATPase; assay type: biochemical, porcine; settings: Table 1, read-out: IC50 Na^+,K^+-ATPase
T1 construct: from tissue; host or cells: porcine kidney (gift of Natalya Fedosova, Aarhus University)
Experimental: (§2) Rabbit sarcoplasmic reticulum membranes containing sarcoplasmic endoplasmic reticulum Ca^2+-ATPase (SERCA) were kindly provided by Claus E. Olesen and Jesper V. Møller, Aarhus University, and prepared as described in reference. Porcine kidney Na^+,K^+-ATPase was kindly provided by Natalya Fedosova, Aarhus University, and prepared as described in reference.
(§3) The protein activity levels were determined by measuring the amount of free phosphate produced from the ATP hydrolysis reaction. The assay was performed as described in reference. Each well contained ATPase enzyme, 2 μl of inhibitor (usually in the range of 333 to 0.01 μM) dissolved in dimethyl sulfoxide (DMSO) (Duchefa Biochemie, Haarlem, The Netherlands), and an assay buffer dependent on the enzyme for a final volume of 60 μl. Possible compound precipitation in the assay buffer was monitored using a Nephelostar plate reader measuring turbidity, and the information was taken into account in the IC50 determination. Pma1 assay buffer consisted of 20 mM 3-(N-morpholino)propanesulfonic acid (MOPS)–NaOH, pH 6.5 or 7.0, 8 mM MgSO4, 50 mM KNO3 (a vacuolar ATPase inhibitor), 25 mM sodium azide (a mitochondrial ATPase inhibitor), and 250 μM sodium molybdate (an acid phosphatase inhibitor). SERCA buffer consisted of 9 mM MOPS-NaOH, pH 7, 2.7 mM MgCl2, 90 μM CaCl2, and 72 mM KCl. Na^+,K^+-ATPase buffer consisted of 30 mM MOPS-NaOH, pH 7, 40 mM NaCl, 4 mM MgCl2, and 20 mM KCl. The concentration of protein was adjusted to obtain a signal of the optical density at 860 nm (OD860) of between 0.5 and 1.0 in the untreated samples (for all Pma1 batches, ∼1 to 2 μg/well; for SERCA and Na^+,K^+-ATPase, ∼0.1 to 0.2 μg/well).

[5] = target: S. cerevisiae Pma1 (Saccharomyces cerevisiae, UniProt P05030); experiment: ATP hydrolysis assay, S. cerevisiae plasma membranes containing Pma1; assay type: biochemical; set-up: containing the full-length cDNA of the S. cerevisiae plasma membrane H^+-ATPase isoform PMA1; made in house; host or cells: S. cerevisiae RS72 (PMA1 cDNA under PMA1 promoter); also wild-type S. cerevisiae ATCC 9763
Sequence of S. cerevisiae Pma1 (P05030 whole entry, canonical isoform): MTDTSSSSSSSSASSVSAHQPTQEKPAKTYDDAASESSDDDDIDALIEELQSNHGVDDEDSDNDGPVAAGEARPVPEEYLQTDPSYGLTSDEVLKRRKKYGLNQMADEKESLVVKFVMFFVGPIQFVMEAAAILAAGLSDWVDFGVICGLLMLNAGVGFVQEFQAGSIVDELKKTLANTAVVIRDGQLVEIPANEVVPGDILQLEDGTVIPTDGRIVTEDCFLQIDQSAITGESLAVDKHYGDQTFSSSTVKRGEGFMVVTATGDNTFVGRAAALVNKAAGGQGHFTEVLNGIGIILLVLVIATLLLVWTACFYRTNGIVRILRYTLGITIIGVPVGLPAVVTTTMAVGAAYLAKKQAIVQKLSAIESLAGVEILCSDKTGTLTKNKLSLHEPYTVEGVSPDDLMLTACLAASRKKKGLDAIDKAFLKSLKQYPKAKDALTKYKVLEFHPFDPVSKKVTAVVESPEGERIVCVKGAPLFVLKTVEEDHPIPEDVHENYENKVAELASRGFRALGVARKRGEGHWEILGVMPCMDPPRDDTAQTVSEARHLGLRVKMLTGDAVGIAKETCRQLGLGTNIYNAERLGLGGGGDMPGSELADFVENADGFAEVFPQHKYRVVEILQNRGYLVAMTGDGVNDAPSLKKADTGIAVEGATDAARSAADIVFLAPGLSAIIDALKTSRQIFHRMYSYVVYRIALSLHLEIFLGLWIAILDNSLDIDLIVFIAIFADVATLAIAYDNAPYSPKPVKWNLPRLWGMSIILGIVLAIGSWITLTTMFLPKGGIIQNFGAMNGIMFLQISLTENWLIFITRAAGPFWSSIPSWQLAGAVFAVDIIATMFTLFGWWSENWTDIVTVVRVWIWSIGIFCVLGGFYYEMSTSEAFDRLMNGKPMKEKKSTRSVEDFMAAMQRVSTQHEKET
Experimental: Plasma membranes containing Pma1 were isolated from S. cerevisiae RS72 cells containing the full-length cDNA of the S. cerevisiae plasma membrane H^+-ATPase isoform PMA1 under the control of the PMA1 promoter, as described in reference.
A 100-ml overnight culture in YPD medium [10 g/liter yeast extract (BD, Sparks, MD), 20 g/liter Bacto peptone (BD), 20 g/liter D-(+)-glucose] was transferred to 1 liter YPD medium and grown at room temperature and 150 rpm for 18 h for wild-type S. cerevisiae (ATCC 9763) and 7 h for C. albicans. The cells were harvested and washed in Milli-Q H2O by centrifugation at 3,360 × g. The cells were glucose activated by the addition of 10% D-(+)-glucose for 10 min while shaking. The cells were then centrifuged at 3,360 × g for 3 min and frozen. Cells (60 to 80 g, wet weight) were then disrupted by bead beating (BioSpec, Bartlesville, OK) and processed as described in reference to prepare the plasma membranes. […] All batches were validated by ATPase hydrolysis activity, pH optimum, and orthovanadate sensitivity.
as §3, with “μg/well). […]” for “μg/well).”

[6] = target: T2, Ca^2+-ATPase (SERCA1a) (Oryctolagus cuniculus, UniProt P04191); experiment: ATP hydrolysis assay, SERCA; assay type: biochemical, rabbit
T2 sequence (P04191 1-994 isoform P04191-2): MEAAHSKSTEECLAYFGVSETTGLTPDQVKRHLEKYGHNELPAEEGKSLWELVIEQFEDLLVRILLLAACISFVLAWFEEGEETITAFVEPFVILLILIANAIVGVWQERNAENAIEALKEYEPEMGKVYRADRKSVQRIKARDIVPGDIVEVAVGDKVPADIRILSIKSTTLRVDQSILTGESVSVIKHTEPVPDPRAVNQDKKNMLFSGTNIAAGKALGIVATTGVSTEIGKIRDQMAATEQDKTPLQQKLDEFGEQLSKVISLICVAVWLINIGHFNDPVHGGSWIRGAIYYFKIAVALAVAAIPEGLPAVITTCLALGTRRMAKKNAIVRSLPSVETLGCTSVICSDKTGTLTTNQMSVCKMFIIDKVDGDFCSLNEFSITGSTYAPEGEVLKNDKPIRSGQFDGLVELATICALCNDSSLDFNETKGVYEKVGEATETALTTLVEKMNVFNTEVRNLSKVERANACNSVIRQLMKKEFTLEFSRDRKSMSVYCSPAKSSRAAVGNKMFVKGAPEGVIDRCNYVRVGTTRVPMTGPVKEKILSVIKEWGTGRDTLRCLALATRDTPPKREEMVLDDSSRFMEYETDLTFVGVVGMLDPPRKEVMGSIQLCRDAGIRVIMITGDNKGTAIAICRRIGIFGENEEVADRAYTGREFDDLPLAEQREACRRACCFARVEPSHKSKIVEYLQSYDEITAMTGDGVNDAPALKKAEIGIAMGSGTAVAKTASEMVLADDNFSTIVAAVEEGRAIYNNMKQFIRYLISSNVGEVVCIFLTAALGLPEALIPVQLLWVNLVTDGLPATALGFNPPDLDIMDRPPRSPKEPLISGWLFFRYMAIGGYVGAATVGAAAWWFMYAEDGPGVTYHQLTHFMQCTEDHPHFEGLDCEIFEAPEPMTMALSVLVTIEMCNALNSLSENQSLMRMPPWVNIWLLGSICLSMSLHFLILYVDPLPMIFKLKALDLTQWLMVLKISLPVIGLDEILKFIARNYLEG
Experimental: as §2, §3

[7] = Compound precipitation in the fungal growth medium; assay type: physicochemical; settings: fungal growth medium (RPMI), footnotes of Table 1
Experimental: (§4) The following fungal isolates were used: Saccharomyces cerevisiae ATCC 9763, Candida albicans SC5314, Candida parapsilosis ATCC 22019, Candida tropicalis Ct016, Candida glabrata ATCC 90030, Aspergillus fumigatus ATCC 13073, and Aspergillus flavus ATCC MYA-1005. Frozen stocks of yeast isolates in glycerol (final concentration, 20%) were prepared by growing the cells to log phase in YPD medium at 30°C and 150 rpm. Frozen stocks of mold spores were prepared by harvesting spores from 7-day-old potato glucose agar plates in phosphate-buffered saline, 0.1% Tween 80 and aliquoting these spores in the presence of glycerol (final concentration, 20%). The cells were stored at −80°C. The cells or spores were thawed and diluted to a final concentration of 0.5 × 10^5 to 2.5 × 10^5 CFU/ml in sterile Milli-Q H2O. […] The plate was incubated for 20 to 24 h at 34°C (72 h for molds), and the OD490 was measured on a Victor X5 (PerkinElmer) plate reader. Mold growth assay plates were also visually inspected. The MIC was defined as the lowest concentration inhibiting the visual growth of the microorganism. Standard errors were typically below 5%.

[8] = test system: Candida spp.; experiment: Fungal growth inhibition, Candida spp. (text summary of Table 1); assay type: cell-based; settings: 38 μM highest concentration tested for compounds 4 and 8, read-out: MIC for several of the Candida spp. tested
Experimental: as §4

[9] = test system: Candida albicans SC5314; experiment: microbe, parasite or virus in culture; settings: Candida albicans, SC5314, pH 7, read-out: MIC C. albicans
Experimental: as §4, with “microorganism.” for “microorganism. Standard errors were typically below 5%.”

[10] = target: T2, Ca^2+-ATPase (SERCA1a); experiment: ATP hydrolysis assay, SERCA; assay type: biochemical, rabbit; settings: Table 1; ATP hydrolysis at pH 7.4 (compounds marked b)
[11] = test system: Candida parapsilosis ATCC 22019; experiment: microbe, parasite or virus in culture; settings: Lodderomyces parapsilosis, ATCC22019, pH 7, read-out: MIC C. parapsilosis
Experimental: as §4, with “microorganism.” for “microorganism. Standard errors were typically below 5%.”

[12] = test system: Aspergillus fumigatus ATCC 13073; experiment: microbe, parasite or virus in culture; settings: Aspergillus fumigatus, ATCC13073, 72 h, pH 7, read-out: MIC A. fumigatus
Experimental: as §4, with “microorganism.” for “microorganism. Standard errors were typically below 5%.”

[13] = test system: Candida glabrata ATCC 90030; experiment: microbe, parasite or virus in culture; settings: Nakaseomyces glabratus, ATCC90030, pH 7, read-out: MIC C. glabrata
Experimental: as §4, with “microorganism.” for “microorganism. Standard errors were typically below 5%.”

[14] = test system: Candida tropicalis Ct016; experiment: microbe, parasite or virus in culture; settings: Candida tropicalis, CT016, pH 7, read-out: MIC C. tropicalis
Experimental: as §4, with “microorganism.” for “microorganism. Standard errors were typically below 5%.”

[15] = test system: S. cerevisiae cells; set-up: method as in PMID 19413991; settings: cited from earlier work
[16] = test system: Saccharomyces cerevisiae ATCC 9763; settings: pH 3; cited from earlier work
[17] = Table 1, ATP hydrolysis at pH 7, 2 to 3 experiments, read-out: IC50 Pma1

IC50 [1]: > 75 µM | IC50 [2]: > 75 µM
Compound: C[C@@H]1[C@H](O)[C@@H](C)/C=C/C=C/C=C/C=C/C=C/C=C/C=C/[C@H](O[C@@H]2O[C@H](C)[C@@H](O)[C@H](N)[C@@H]2O)C[C@@H]2O[C@](O)(C[C@@H](O)C[C@@H](O)[C@H](O)CC[C@@H](O)C[C@@H](O)CC(=O)O[C@H]1C)C[C@H](O)[C@H]2C(=O)O [AMB, amphotericin B, reference compound]

Compound: N#CC(C#N)=NNc1cccc(Cl)c1 [CCCP, carbonyl cyanide m-chlorophenylhydrazone, reference compound]
Effects on iATP levels, in words [3]: minimal effects

Compound: O=C1[C@@H]2C(c3ccc(Br)cc3)=NN(c3ccccc3)[C@@H]2C(=O)N1c1ccccc1F [Compound 2]
IC50 ([4]; ATP hydrolysis at pH 7): > 105 µM | IC50 [5, 17]: 2.1 ± 1.3 µM | IC50 [6]: > 105 µM | Compound precipitation observed in the growth medium at concentrations down to [7]: d Compound precipitation was observed in the growth medium at concentrations down to 48 μM. | MIC [8]: > 150 µM | MIC [9]: > 150 µM

Compound: O=C1C=CC(=O)N1c1cccc2ccccc12 [Compound 10]
IC50 ([4]; ATP hydrolysis at pH 7.4 (compounds marked b)): > 105 µM | IC50 ([5]; IC50 Pma1, Table 1, ATP hydrolysis at pH 6.5 (compounds marked b), 2 to 3 experiments): 9.4 ± 1.7 µM | IC50 ([5]; IC50 for Pma1, ATP hydrolysis, S. cerevisiae Pma1): < 25 µM | IC50 [10]: 3.4 ± 1.8 µM | MIC [11]: 116 µM (≈ 25.9 µg/mL) | MIC [12]: 99 µM (≈ 22.1 µg/mL) | MIC [13]: 12 µM (≈ 2.68 µg/mL) | MIC [9]: 88 µM (≈ 19.6 µg/mL) | MIC [14]: 15 µM (≈ 3.35 µg/mL)

Compound: CN1CCc2c(sc3c2C(=O)NC(c2ccc(-c4cccc(Cl)c4)o2)N3)C1 (centres unmarked) [Compound 13]
IC50 ([4]; ATP hydrolysis at pH 7): 30.6 ± 11.1 µM | IC50 ([5]; ATP hydrolysis, S. cerevisiae Pma1, read-out: IC50 for Pma1): < 25 µM | IC50 [5, 17]: 22.6 ± 12.4 µM | IC50 [6]: 22 ± 3 µM | MIC [11]: 47 µM (≈ 18.8 µg/mL) | MIC [13]: 31 µM (≈ 12.4 µg/mL) | MIC [9]: 23 µM (≈ 9.2 µg/mL) | MIC [14]: > 150 µM

Compound: CC[C@H]1/C=C/C=C/C[C@@H](C)[C@H](O)[C@@](C)(O)C(=O)[C@@H](C)[C@H](O)[C@@H](C)C(=O)[C@@H](C)[C@H](O)[C@@H](C)/C=C/C(=O)O[C@@H]2[C@H](C)[C@H](CC1)O[C@]1(CC[C@H](C)[C@H](C[C@@H](C)O)O1)[C@H]2C [oligomycin, reference compound]
Effects on iATP levels, in words [3]: minimal effects

Compound: COc1ccc2[nH]c([S+]([O-])Cc3ncc(C)c(OC)c3C)nc2c1 (centres unmarked) [omeprazole]
Increase in iATP levels, S. cerevisiae [15]: 36% | Concentration required for full growth inhibition of Saccharomyces cerevisiae [16]: 430 µM
